Laboratory results reported in ChEMBL document CHEMBL3745703, “Preclinical characterization of substituted 6,7-dihydro-[1,2,4]triazolo[4,3-a]pyrazin-8(5H)-one P2X7 receptor antagonists” (Bioorg Med Chem Lett, 2016).
Converted amounts (≈) assume the structure as drawn.

Key:
[1] = target: T1, P2X purinoceptor 7 (Rattus norvegicus, UniProt Q64663); assay: Antagonist activity at rat P2X7 receptor expressed in 1321N1 cells assessed as inhibition of Bz-ATP-induced Ca2+ flux after 30 mins by FLIPR assay; type: cell-based
T1 sequence (Q64663 whole entry): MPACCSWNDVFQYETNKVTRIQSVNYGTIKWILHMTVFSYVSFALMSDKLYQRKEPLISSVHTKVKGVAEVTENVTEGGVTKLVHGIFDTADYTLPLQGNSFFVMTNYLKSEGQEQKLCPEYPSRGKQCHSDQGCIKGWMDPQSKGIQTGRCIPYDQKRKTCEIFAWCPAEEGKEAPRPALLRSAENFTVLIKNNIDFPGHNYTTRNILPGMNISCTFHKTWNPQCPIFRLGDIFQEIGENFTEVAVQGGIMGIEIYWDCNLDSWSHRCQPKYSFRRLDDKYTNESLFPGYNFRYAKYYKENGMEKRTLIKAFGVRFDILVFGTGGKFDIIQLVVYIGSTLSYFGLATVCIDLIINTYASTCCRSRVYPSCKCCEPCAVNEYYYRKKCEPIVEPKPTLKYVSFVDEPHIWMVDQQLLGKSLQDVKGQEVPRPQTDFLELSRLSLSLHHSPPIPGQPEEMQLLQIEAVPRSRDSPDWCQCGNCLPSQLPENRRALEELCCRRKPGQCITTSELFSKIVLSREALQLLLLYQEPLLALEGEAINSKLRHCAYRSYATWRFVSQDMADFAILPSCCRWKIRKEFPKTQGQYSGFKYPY

[2] = target: T2, P2X purinoceptor 7 (Homo sapiens, UniProt Q99572); assay: Antagonist activity at human P2X7 receptor expressed in 1321N1 cells assessed as inhibition of Bz-ATP-induced Ca2+ flux after 30 mins by FLIPR assay; type: cell-based
T2 sequence (Q99572 whole entry): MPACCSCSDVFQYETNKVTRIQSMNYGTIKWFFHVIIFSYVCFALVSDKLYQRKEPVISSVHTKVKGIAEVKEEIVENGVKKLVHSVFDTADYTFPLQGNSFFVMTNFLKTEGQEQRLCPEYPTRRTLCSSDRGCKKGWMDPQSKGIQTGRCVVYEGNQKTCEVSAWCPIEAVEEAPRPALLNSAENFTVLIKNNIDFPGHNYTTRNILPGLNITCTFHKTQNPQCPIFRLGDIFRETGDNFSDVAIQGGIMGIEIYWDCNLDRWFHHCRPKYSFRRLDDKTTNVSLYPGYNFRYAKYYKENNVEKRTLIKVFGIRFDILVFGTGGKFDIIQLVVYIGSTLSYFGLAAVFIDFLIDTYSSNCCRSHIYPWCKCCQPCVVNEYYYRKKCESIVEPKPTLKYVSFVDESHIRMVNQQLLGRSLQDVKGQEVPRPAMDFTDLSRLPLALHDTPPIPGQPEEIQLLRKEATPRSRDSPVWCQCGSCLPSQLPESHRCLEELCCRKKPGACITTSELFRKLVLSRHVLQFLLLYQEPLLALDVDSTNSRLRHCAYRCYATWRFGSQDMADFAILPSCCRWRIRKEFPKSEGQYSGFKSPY

[3] = Plasma protein binding in rat at 1 uM; type: ADME, cell-free; settings: read-out: PPB (converted)
[4] = Plasma protein binding in human at 1 uM; type: ADME, cell-free; settings: read-out: PPB (converted)
[5] = Selectivity ratio of IC50 for rat P2X7 receptor to IC50 for human P2X7 receptor
[6] = Efflux ratio of apparent permeability from basolateral to apical side over apical to basolateral side in human Caco2 cells; type: ADME, cell-based; settings: Caco-2
[7] = Aqueous equilibrium solubility of the compound at pH 7; type: physicochemical
[8] = tested on: Brain; assay: Drug uptake in Sprague-Dawley rat brain at 10 mg/kg, po at Tmax; type: ADME, organism-based; settings: in vivo
[9] = Extraction ratio in rat liver microsomes at 1 uM; type: ADME; settings: read-out: ERH
[10] = Volume of distribution at steady state in rat at 1 mg/kg, iv and 5 mg/kg, po; type: ADME, organism-based; settings: in vivo, read-out: Vdss
[11] = Plasma concentration in Sprague-Dawley rat at 10 mg/kg, po at Tmax; type: ADME, organism-based
[12] = species on record: Rattus norvegicus; assay: Ex vivo receptor occupancy at P2X7 receptor in Sprague-Dawley rat hippocampus assessed as inhibition of [3H] A-804598 binding at Tmax by autoradiography; type: functional
[13] = Half life in rat at 1 mg/kg, iv and 5 mg/kg, po; type: ADME, organism-based; settings: in vivo
[14] = Apparent permeability from basolateral to apical side in human Caco2 cells; type: ADME, cell-based; settings: Caco-2
[15] = Apparent permeability from apical to basolateral side in human Caco2 cells; type: ADME, cell-based; settings: Caco-2
[16] = Extraction ratio in human liver microsomes at 1 uM; type: ADME; settings: read-out: ERH
[17] = Clearance in rat at 1 mg/kg, iv and 5 mg/kg, po; type: ADME, organism-based; settings: in vivo
[18] = Oral bioavailability in rat at 5 mg/kg; type: ADME, organism-based; settings: in vivo
[19] = Aqueous equilibrium solubility of the compound at pH 2; type: physicochemical
[20] = Brain protein binding in Sprague-Dawley rat at 10 mg/kg, po; type: ADME, organism-based; settings: read-out: PB (converted)
[21] = species on record: Rattus norvegicus; assay: animal or person; settings: Sprague-Dawley, P2X7
Description: Ex vivo receptor occupancy at P2X7 receptor in po dosed Sprague-Dawley rat hippocampus assessed as inhibition of [3H]JNJ-54232334 binding by measuring brain level after 30 mins

[22] = Unbound brain to plasma partition ratio in Sprague-Dawley rat at 0.8 mg/kg, po; settings: read-out: K(p,uu,brain)
[23] = species on record: Rattus norvegicus; assay: animal or person; settings: Sprague-Dawley, P2X7, Plasma
Description: Ex vivo receptor occupancy at P2X7 receptor in po dosed Sprague-Dawley rat hippocampus assessed as inhibition of [3H]JNJ-54232334 binding by measuring plasma level after 30 mins

[24] = Plasma protein binding in Sprague-Dawley rat at 10 mg/kg, po; type: ADME, organism-based; settings: read-out: PPB (converted)
[25] = target: Voltage-gated inwardly rectifying potassium channel KCNH2 (Homo sapiens, UniProt Q12809); assay: Displacement of dofetilide from human ERG channel
[26] = Inhibition of CYP450 (unknown origin); type: ADME, Homo sapiens
[27] = Ratio of drug level in brain to plasma in Sprague-Dawley rat at 10 mg/kg, po; type: ADME, organism-based; settings: read-out: BPR
[28] = target: Cytochrome P450 2C19 (Homo sapiens, UniProt P33261); assay: Inhibition of CYP2C19 (unknown origin); type: ADME
[29] = tested on: Rattus norvegicus; assay: Ex vivo receptor occupancy at P2X7 receptor in po dosed Sprague-Dawley rat hippocampus assessed as inhibition of [3H]JNJ-54232334 binding after 30 mins; type: functional

Voltage-gated inwardly rectifying potassium channel KCNH2, sequence (Q12809 whole entry): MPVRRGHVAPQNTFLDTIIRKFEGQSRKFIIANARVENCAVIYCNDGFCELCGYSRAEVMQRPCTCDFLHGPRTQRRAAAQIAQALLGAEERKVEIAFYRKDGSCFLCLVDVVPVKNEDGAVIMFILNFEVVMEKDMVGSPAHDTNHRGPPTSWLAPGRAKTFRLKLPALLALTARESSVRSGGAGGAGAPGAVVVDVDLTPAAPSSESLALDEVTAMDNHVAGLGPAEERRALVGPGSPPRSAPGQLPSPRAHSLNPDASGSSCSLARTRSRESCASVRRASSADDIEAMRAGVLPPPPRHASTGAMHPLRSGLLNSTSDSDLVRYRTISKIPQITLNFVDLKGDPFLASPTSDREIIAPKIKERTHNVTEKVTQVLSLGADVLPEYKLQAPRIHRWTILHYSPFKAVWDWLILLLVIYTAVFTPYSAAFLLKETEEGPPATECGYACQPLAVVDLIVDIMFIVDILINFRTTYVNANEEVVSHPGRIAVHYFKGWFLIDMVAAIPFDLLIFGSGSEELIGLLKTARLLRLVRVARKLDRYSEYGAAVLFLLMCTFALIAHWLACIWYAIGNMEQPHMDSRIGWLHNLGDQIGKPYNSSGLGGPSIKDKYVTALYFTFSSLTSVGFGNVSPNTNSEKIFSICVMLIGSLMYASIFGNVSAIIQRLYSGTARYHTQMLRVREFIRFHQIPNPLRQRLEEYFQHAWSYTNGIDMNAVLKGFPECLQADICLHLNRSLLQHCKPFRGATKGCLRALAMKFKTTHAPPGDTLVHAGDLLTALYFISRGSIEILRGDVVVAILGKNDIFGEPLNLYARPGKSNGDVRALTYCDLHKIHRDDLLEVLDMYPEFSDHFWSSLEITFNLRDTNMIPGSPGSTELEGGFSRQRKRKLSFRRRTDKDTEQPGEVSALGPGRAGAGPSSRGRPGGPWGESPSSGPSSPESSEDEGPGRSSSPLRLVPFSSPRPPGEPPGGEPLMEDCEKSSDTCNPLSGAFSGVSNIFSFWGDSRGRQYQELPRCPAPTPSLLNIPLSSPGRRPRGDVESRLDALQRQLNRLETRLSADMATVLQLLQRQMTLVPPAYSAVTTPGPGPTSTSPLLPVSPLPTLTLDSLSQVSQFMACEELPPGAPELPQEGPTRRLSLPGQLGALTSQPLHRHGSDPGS
Cytochrome P450 2C19, sequence (P33261 whole entry): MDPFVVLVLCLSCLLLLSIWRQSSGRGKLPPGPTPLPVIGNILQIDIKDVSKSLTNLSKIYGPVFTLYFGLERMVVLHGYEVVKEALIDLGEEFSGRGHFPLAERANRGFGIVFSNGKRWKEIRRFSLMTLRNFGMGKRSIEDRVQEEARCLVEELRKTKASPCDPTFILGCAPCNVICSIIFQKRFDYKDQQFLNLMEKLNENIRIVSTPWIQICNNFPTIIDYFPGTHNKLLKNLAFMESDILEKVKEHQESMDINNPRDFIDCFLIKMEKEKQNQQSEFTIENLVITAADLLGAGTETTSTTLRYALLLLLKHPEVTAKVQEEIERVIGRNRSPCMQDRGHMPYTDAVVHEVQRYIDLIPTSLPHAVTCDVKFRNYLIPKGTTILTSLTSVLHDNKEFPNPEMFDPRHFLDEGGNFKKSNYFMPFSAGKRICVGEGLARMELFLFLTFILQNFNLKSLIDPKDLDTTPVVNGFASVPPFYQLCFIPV

Row | Compound | IC50 [1] [nM] | IC50 [2] [nM] | fraction unbound at 1 µM [3] | fraction unbound at 1 µM [4] | solubility thermodynamic [7] [µM] | Drug uptake [8] [ng/mL] | Vd [10] [L/kg] | Cmax [11] [ng/mL] | half-life [13] [h] | Papp B→A [14] [×10⁻⁶ cm/s] | Papp A→B [15] [×10⁻⁶ cm/s] | clearance [17] [mL/min/kg] | bioavailability [18] [%] | solubility thermodynamic [19] [µM] | Occ [12] [%] | further results
1 | O=C1c2nnn(-c3cnccn3)c2CCN1Cc1cccc(C(F)(F)F)c1Cl | > 10000 | > 10000 | – | – | – | – | – | – | – | – | – | – | – | – | – | –
2 | C[C@H]1Cn2c(nnc2-c2cccnc2)C(=O)N1Cc1cccc(C(F)(F)F)c1Cl | 88 | 1.9 | 0.17 | 0.22 | 375 (≈ 158 µg/mL) | 43 | 5 | 1060 | 2.8 | 73 | 6.2 | 21 | 82 | > 400 | 0 | Ratio IC50 [5]: 100; efflux ratio [6]: > 10; hepatic extraction ratio at 1 µM [9]: 0.3; hepatic extraction ratio at 1 µM [16]: 0.3
3 | C[C@H]1Cn2c(nnc2-c2ncccn2)C(=O)N1Cc1cccc(C(F)(F)F)c1Cl | – | – | 0.17 | 0.21 | 201 (≈ 85 µg/mL) | 116 | 3.3 | 2790 | 4.8 | 64 | 4.4 | 11 | 80 | 176 (≈ 74.4 µg/mL) | 41 | –
4 | C[C@H]1Cn2c(nnc2-c2cc[nH]n2)C(=O)N1Cc1cccc(C(F)(F)F)c1Cl | – | – | 0.1 | 0.08 | 95 (≈ 39 µg/mL) | 41 | 4.2 | 1310 | 3.9 | 65 | 5.4 | 13 | 81 | 41 (≈ 16.8 µg/mL) | 3 | –
5 | C[C@H]1Cn2c(nnc2-c2ccc(F)cn2)C(=O)N1Cc1cccc(C(F)(F)F)c1Cl | – | 0.7 | – | – | – | – | – | – | – | – | – | – | – | – | – | –
6 | C[C@H]1Cn2c(nnc2-c2ccn(C)n2)C(=O)N1Cc1cccc(C(F)(F)F)c1Cl | 960 | 4.2 | – | – | – | – | – | – | – | – | – | – | – | – | – | Ratio IC50 [5]: 100
7 | O=C1c2nnc(-c3cnccn3)n2CCN1Cc1cccc(C(F)(F)F)c1Cl | 8670 | 440 | – | – | – | – | – | – | – | – | – | – | – | – | – | –
8 | C[C@H]1Cn2c(nnc2-c2ccccn2)C(=O)N1Cc1cccc(C(F)(F)F)c1Cl | 350 | 0.5 | – | – | – | – | – | – | – | – | – | – | – | – | – | Ratio IC50 [5]: 100

Second part, led by results:

Row | IC50 [1] [nM] | IC50 [2] [nM] | fraction unbound at 1 µM [3] | fraction unbound at 1 µM [4] | solubility thermodynamic [7] [µM] | Drug uptake [8] [ng/mL] | Vd [10] [L/kg] | Cmax [11] [ng/mL] | half-life [13] [h] | Papp B→A [14] [×10⁻⁶ cm/s] | Papp A→B [15] [×10⁻⁶ cm/s] | clearance [17] [mL/min/kg] | bioavailability [18] [%] | solubility thermodynamic [19] [µM] | Compound | Occ [12] [%] | further results
9 | > 10000 | – | – | – | – | – | – | – | – | – | – | – | – | – | C[C@H]1Cn2c(nnc2-c2cnccn2)C(=O)N1Cc1ccccc1Cl | – | –
10 | 2380 | – | – | – | – | – | – | – | – | – | – | – | – | – | C[C@H]1Cn2c(nnc2-c2cnccn2)C(=O)N1Cc1c(Cl)cccc1Cl | – | –
11 | – | – | 0.1 | 0.13 | 56 (≈ 23.7 µg/mL) | 672 | 1.5 | 945 | 1 | 50 | 47 | 19 | 125 | 89 (≈ 37.6 µg/mL) | C[C@H]1Cn2c(nnc2-c2cnccn2)C(=O)N1Cc1cccc(C(F)(F)F)c1Cl | 78 | fraction unbound [20]: 0.046; EC50 [21]: 0.066 µg/mL (≈ 0.156 µM); Kp uu [22]: 0.51; EC50 [23]: 0.062 µg/mL (≈ 0.147 µM); fraction unbound [24]: 0.096; IC50 [25]: > 10000 nM; IC50 [26]: > 10000 nM; Kp [27]: 0.7; IC50 [28]: 7200 nM; ED50 [29]: 0.8 mg/kg; Occ [29]: Dose-dependent effect
12 | 4140 | 3.6 | – | – | – | – | – | – | – | – | – | – | – | – | C[C@H]1Cn2c(nnc2-c2cnccn2)C(=O)N1Cc1cccc(C(F)(F)F)c1 | – | –
